# Tested on: HBV
# Experiment: HBV screening assay (viral DNA in baculovirus-HBV transduced HepG2 cells)
# Type: cell-based
# Settings: Hepatitis B virus, HepG2, 72 h, read-out: EC50 (antiviral activity), HBV-transduced HepG2 cells, three days with compound, viral DNA by ELISA
# Description: HepG2 cells were transduced using a baculovirus to deliver the HBV genome essentially as previously described (Delaney et al. in Hepatology 1998; 28: 1134-1146). Transduced cells were cultured in supplemented EMEM media with 10% fetal bovine serum in a 5% CO2 incubator at 37° C. for three days in the presence of test compounds. The cells were lysed in a buffer containing 0.5% NP-40 and […] proteinase K. A solid-phase hybridization was performed to capture the viral DNA and to label the target DNA with Digoxigenin-labeled DNA probes. The viral DNA was detected by ELISA, using horseradish peroxidase-conjugated anti-digoxigenin antibodies.
# The EC50 values were determined using ExcelFit software from the inhibition values of a titration curve for each compound. For CC50 determinations, the same titration of compounds was co-cultured with non-transduced HepG2 for three days under the conditions described above. The Promega CellTiter 96 Aqueous One Solution Cell Proliferation Assay was used to measure cell proliferation/viability. The CC50 values were determined using ExcelFit software from the inhibition values of the titration curve for each compound.
row,SMILES,EC50
1,"NC(=O)c1sc2nc3c(c(-c4cccs4)c2c1N)CCC3CC(=O)O (stereo not shown) [Compound 36, 3-Amino-7-carboxymethyl-4-thiophen-2-yl-6,7-dihydro-5H-cyclopenta[b]thieno[3,2-e]pyridine-2-carboxylic acid amide]",> 10 µM
2,"CCNC(=O)N1Cc2nc3sc(C(N)=O)c(N)c3c(-c3cccs3)c2C1 [Compound 98, 3-Amino-4-thiophen-2-yl-5,7-dihydro-1-thia-6,8-diaza-s-indacene-2,6-dicarboxylicacid 2-amide 6-ethylamide]",< 1 µM
3,"NC(=O)c1sc2nc3c(c(-c4cccs4)c2c1N)CN(CC(=O)c1ccc(Cl)cc1)C3 [Compound 12, 3-Amino-6-[2-(4-chloro-phenyl)-2-oxo-ethyl]-4-thiophen-2-yl-6,7-dihydro-5H-1-thia-6,8-diaza-s-indacene-2-carboxylic acidamide]",1 to 10 µM
4,"Cc1ccccc1CN1Cc2nc3sc(C(N)=O)c(N)c3c(-c3cccs3)c2C1 [Compound 22, 3-Amino-6-(2-methyl-benzyl)-4-thiophen-2-yl-6,7-dihydro-5H-1-thia-6,8-diaza-s-indacene-2-carboxylic acid amide]",1 to 10 µM
5,"NC(=O)c1sc2nc3c(c(-c4cccs4)c2c1N)CCC3CC(=O)NCCc1ccccn1 (stereo not shown) [Compound 46, 3-Amino-7-[(2-pyridin-2-yl-ethylcarbamoyl)-methyl]-4-thiophen-2-yl-6,7-dihydro-5H-cyclopenta[b]thieno[3,2-e]pyridine-2-carboxylic acid amide]",> 10 µM
6,"NC(=O)c1sc2nc3c(c(-c4cccs4)c2c1N)CN(CCOC(=O)c1ccccc1)C3 [Compound 9, 3-Amino-6-(2-benzoyloxy-ethyl)-4-thiophen-2-yl-6,7-dihydro-5H-1-thia-6,8-diaza-s-indacene-2-carboxylic acid amide]",1 to 10 µM
7,"CCOC(=O)N1CCC(NC(=O)CC2CCc3c2nc2sc(C(N)=O)c(N)c2c3-c2cccs2)CC1 (stereo not shown) [Compound 54, 4-[2-(3-Amino-2-carbamoyl-4-thiophen-2-yl-6,7-dihydro-5H-cyclopenta[b]thiano[3,2-e]pyridin-7-yl)-acetylamino]-piperidine-1-carboxylic acid ethyl ester]",> 10 µM
8,"NC(=O)c1sc2nc3c(c(-c4cccs4)c2c1N)CN(C(=S)Nc1ccc(F)cc1)C3 [Compound 88, 3-Amino-6-(4-fluoro-phenylthiocarbamoyl)-4-thiophen-2-yl-6,7-dihydro-5H-1-thia-6,8-diaza-s-indacene-2-carboxylic acid amide]",> 10 µM
9,"CCCCCN1Cc2nc3sc(C(N)=O)c(N)c3c(-c3cccs3)c2C1 [Compound 16, 3-Amino-6-pentyl-4-thiophen-2-yl-6,7-dihydro-5H-1-thia-6,8-diaza-s-indacene-2-carboxylic acid amide]",> 10 µM
10,"CCOC(=O)C1CCN(C(=O)CC2CCc3c2nc2sc(C(N)=O)c(N)c2c3-c2cccs2)CC1 (stereo not shown) [Compound 56, 1-[2-(3-Amino-2-carbamoyl-4-thiophen-2-yl-6,7-dihydro-5H-cyclopenta[b]thieno[3,2-e]pyridin-7-yl)-acetyl]-piperidine-4-carboxylic acid ethyl ester]",> 10 µM
11,"NC(=O)c1sc2nc3c(c(-c4cccs4)c2c1N)CN(C(=S)Nc1cccc(C(F)(F)F)c1)C3 [Compound 87, 3-Amino-4-thiophen-2-yl-6-(3-trifluoromethyl-phenylthiocarbamoyl)-6,7-dihydro-5H-1-thia-6,8-diaza-s-indacene-2-carboxylic acid amide]",> 10 µM
12,"CCCC1CCCc2c1nc1sc(C(N)=O)c(N)c1c2-c1cccs1 (stereo not shown) [Compound 65, 3-Amino-8-propyl-4-thiophen-2-yl-5,6,7,8-tetrahydro-thieno[2,3-b]quinoline-2-carboxylic acid amide]",1 to 10 µM
13,"CC(=O)N1CCc2nc3sc(C(N)=O)c(N)c3c(-c3cccs3)c2C1 [Compound 34, 6-Acetyl-3-amino-4-thiophen-2-yl-5,6,7,8-tetrahydro-thieno[2,3-b][1,6]naphthyridine-2-carboxylic acid amide]",> 10 µM
14,"CCOC(=O)CC1CCc2c1nc1sc(C(N)=O)c(N)c1c2-c1cccs1 (stereo not shown) [Compound 41, 3-Amino-7-carbethoxymethyl-4-thiophen-2-yl-6,7-dihydro-5H-cyclopenta[b]thieno[3,2-e]pyridine-2-carboxylic acid amide]",> 10 µM
15,"NC(=O)c1sc2nc3c(c(-c4cccs4)c2c1N)CN(C(=S)NC1CCCC1)C3 [Compound 81, 3-Amino-6-cyclopentylthiocarbamoyl-4-thiophen-2-yl-6,7-dihydro-5H-1-thia-6,8-diaza-s-indacene-2-carboxylic acid amide]",1 to 10 µM
16,"CCCCNC(=S)N1Cc2nc3sc(C(N)=O)c(N)c3c(-c3cccs3)c2C1 [Compound 82, 3-Amino-6-butylthiocarbamoyl-4-thiophen-2-yl-6,7-dihydro-5H-1-thia-6,8-diaza-s-indacene-2-carboxylic acid amide]",1 to 10 µM

row,SMILES,EC50
1,"CC(C)(C)OC(=O)N1CCc2c(nc3sc(C(N)=O)c(N)c3c2-c2cccs2)C1 [Compound 30, 3-Amino-7-tert-butyloxycarbonyl-4-thiophen-2-yl-5,6,7,8-tetrahydro-1-thia-7,9-diaza-cyclopenta[b]naphthalene-2-carboxylic acid amide]",> 10 µM
2,"CCOC(=O)CN1Cc2nc3sc(C(N)=O)c(N)c3c(-c3cccs3)c2C1 [Compound 18, 3-Amino-6-carbethoxymethyl-4-thiophen-2-yl-6,7-dihydro-5H-1-thia-6,8-diaza-s-indacene-2-carboxylic acid amide]",> 10 µM
3,"COc1ccccc1CNC(=O)CC1CCc2c1nc1sc(C(N)=O)c(N)c1c2-c1cccs1 (stereo not shown) [Compound 44, 3-Amino-7-[(2-methoxy-benzylcarbamoyl)-methyl]-4-thiophen-2-yl-6,7-dihydro-5H-cyclopenta[b]thieno[3,2-e]pyridine-2-carboxylic acid amide]",> 10 µM
4,"COCCN1Cc2nc3sc(C(N)=O)c(N)c3c(-c3cccs3)c2C1 [Compound 17, 3-Amino-6-(2-methoxy-ethyl)-4-thiophen-2-yl-6,7-dihydro-5H-1-thia-6,8-diaza-s-indacene-2-carboxylic acid amide]",> 10 µM
5,"CCCCCCC1CCc2c1nc1sc(C(N)=O)c(N)c1c2-c1cccs1 (stereo not shown) [Compound 59, 3-Amino-7-hexyl-4-thiophen-2-6,7-dihydro-5H-cyclopenta[b]thieno[3,2-e]pyridine-2-carboxylic acid amide]",> 10 µM
6,"NC(=O)c1sc2nc3c(c(-c4cccs4)c2c1N)CN(CC1CCCCC1)C3 [Compound 11, 3-Amino-6-cyclohexylmethyl-4-thiophen-2-yl-6,7-dihydro-5H-1-thia-6,8-diaza-s-indacene-2-carboxylic acid amide]",1 to 10 µM
7,"NC(=O)c1sc2nc3c(c(-c4cccs4)c2c1N)CN(CCc1ccccc1)C3 [Compound 10, 3-Amino-6-phenethyl-4-thiophen-2-yl-6,7-dihydro-5H-1-thia-6,8-diaza-s-indacene-2-carboxylic acid amide]",> 10 µM
8,"NC(=O)c1sc2nc3c(c(-c4cccs4)c2c1N)CN(CCCN1CCN(c2ncccn2)CC1)C3 [Compound 25, 3-Amino-6-[3-(4-pyrimidin-2-yl-piperazin-1-yl)-propyl]-4-thiophen-2-yl-6,7-dihydro-5H-1-thia-6,8-diaza-s-indacene-2-carboxylicacid amide]",> 10 µM
9,"NC(=O)c1sc2nc3c(c(-c4cccs4)c2c1N)CN(Cc1ccccc1)C3 [Compound 21, 3-Amino-6-benzyl-4-thiophen-2-yl-6,7-dihydro-5H-1-thia-6,8-diaza-s-indacene-2-carboxylic acid amide]",1 to 10 µM
10,"NC(=O)c1sc2nc3c(c(-c4cccs4)c2c1N)CN(Cc1ccccn1)C3 [Compound 7, 3-Amino-6-pyridin-2-ylmethyl-4-thiophen-2-yl-6,7-dihydro-5H-1-thia-6,8-diaza-s-indacene-2-carboxylic acid amide]",> 10 µM
11,"NC(=O)c1sc2nc3c(c(-c4cccs4)c2c1N)CN(C(=S)Nc1ccccc1)C3 [Compound 79, 3-Amino-6-phenylthiocarbamoyl-4-thiophen-2-yl-6,7-dihydro-5H-1-thia-6,8-diaza-s-indacene-2-carboxylic acid amide]",> 10 µM
12,"COc1cccc(C2CCCc3c2nc2sc(C(N)=O)c(N)c2c3-c2cccs2)c1 (stereo not shown) [Compound 67, 3-Amino-8-(3-methoxy-phenyl)-4-thiophen-2-yl-5,6,7,8-tetrahydro-thieno[2,3-b]quinoline-2-carboxylic acid amide]",> 10 µM
13,"NC(=O)c1sc2nc3c(c(-c4cccs4)c2c1N)CN(C(=S)Nc1ccsc1)C3 [Compound 100, 3-Amino-4-thiophen-2-yl-5,7-dihydro-1-thia-6,8-diaza-s-indacene-2,6-dicarboxylicacid 2-amide 5-thiophen-3-ylamide]",< 1 µM
14,"NC(=O)c1sc2nc3c(c(-c4cccs4)c2c1N)CN(CCCCl)C3 [Compound 3, 3-Amino-6-(3-chloro-propyl)-4-thiophen-2-yl-6,7-dihydro-5H-1-thia-6,8-diaza-s-indacene-2-carboxylic acid amide]",1 to 10 µM
15,"Cc1cc(C)cc(NC(=S)N2Cc3nc4sc(C(N)=O)c(N)c4c(-c4cccs4)c3C2)c1 [Compound 92, 3-Amino-6-(3,5-dimethyl-phenylthiopcarbamoyl)-4-thiophen-2-yl-6,7-dihydro-5H-1-thia-6,8-diaza-s-indacene-2-carboxylic acid amide]",> 10 µM

# Reference: patent US20090029983A1, “NOVEL HETEROCYCLIC COMPOUNDS HAVING ANTI-HBV ACTIVITY” (priority 2005, published 2009)
